Legend:
[1] = biological target: T1, ABL1(H396P)-phosphorylated (Homo sapiens, UniProt P00519, H396P); assay: KinomeScan; format: binding; settings: read-out: % control
T1 construct: purchased DiscoveRx KINOMEscan

[2] = biological target: T2, ABL1(Y253F)-phosphorylated (Homo sapiens, UniProt P00519, Y253F); assay: KinomeScan; format: binding; settings: read-out: % control
T2 construct: purchased DiscoveRx KINOMEscan

[3] = biological target: T3, ABL2 (Homo sapiens, UniProt P42684); assay: KinomeScan; format: binding; settings: read-out: % control
T3 construct: purchased DiscoveRx KINOMEscan

[4] = biological target: T4, ACVRL1 (Homo sapiens, UniProt P37023); assay: KinomeScan; format: binding; settings: read-out: % control
T4 construct: purchased DiscoveRx KINOMEscan

[5] = biological target: T5, ASK2 (Homo sapiens, UniProt O95382); assay: KinomeScan; format: binding; settings: read-out: % control
T5 construct: purchased DiscoveRx KINOMEscan

[6] = biological target: T6, AXL (Homo sapiens, UniProt P30530); assay: KinomeScan; format: binding; settings: read-out: % control
T6 construct: purchased DiscoveRx KINOMEscan

[7] = biological target: T7, BUB1 (Homo sapiens, UniProt O43683); assay: KinomeScan; format: binding; settings: read-out: % control
T7 construct: purchased DiscoveRx KINOMEscan

[8] = biological target: T8, EPHA6 (Homo sapiens, UniProt Q9UF33); assay: KinomeScan; format: binding; settings: read-out: % control
T8 construct: purchased DiscoveRx KINOMEscan

[9] = biological target: T9, ERBB4 (Homo sapiens, UniProt Q15303); assay: KinomeScan; format: binding; settings: read-out: % control
T9 construct: purchased DiscoveRx KINOMEscan

[10] = biological target: T10, FGFR3 (Homo sapiens, UniProt P22607); assay: KinomeScan; format: binding; settings: read-out: % control
T10 construct: purchased DiscoveRx KINOMEscan

[11] = test system: FLT3(ITD,F691L); assay: KinomeScan; format: binding; settings: 1μM
[12] = biological target: T11, GRK7 (Homo sapiens, UniProt Q8WTQ7); assay: KinomeScan; format: binding; settings: read-out: % control
T11 construct: purchased DiscoveRx KINOMEscan

[13] = biological target: T12, HCK (Homo sapiens, UniProt P08631); assay: KinomeScan; format: binding; settings: read-out: % control
T12 construct: purchased DiscoveRx KINOMEscan

[14] = biological target: T13, KIT(V559D,T670I) (Homo sapiens, UniProt P10721, T670I/V559D); assay: KinomeScan; format: binding; settings: read-out: % control
T13 construct: purchased DiscoveRx KINOMEscan

[15] = biological target: T14, KIT(V559D,V654A) (Homo sapiens, UniProt P10721, V559D/V654A); assay: KinomeScan; format: binding; settings: read-out: % control
T14 construct: purchased DiscoveRx KINOMEscan

[16] = biological target: T15, LOK (Homo sapiens, UniProt O94804); assay: KinomeScan; format: binding; settings: read-out: % control
T15 construct: purchased DiscoveRx KINOMEscan

[17] = biological target: T16, LRRK2 (Homo sapiens, UniProt Q5S007); assay: KinomeScan; format: binding; settings: read-out: % control
T16 construct: purchased DiscoveRx KINOMEscan

[18] = biological target: T17, LZK (Homo sapiens, UniProt O43283); assay: KinomeScan; format: binding; settings: read-out: % control
T17 construct: purchased DiscoveRx KINOMEscan

[19] = biological target: T18, MAP4K5 (Homo sapiens, UniProt Q9Y4K4); assay: KinomeScan; format: binding; settings: read-out: % control
T18 construct: purchased DiscoveRx KINOMEscan

[20] = biological target: T19, MARK3 (Homo sapiens, UniProt P27448); assay: KinomeScan; format: binding; settings: read-out: % control
T19 construct: purchased DiscoveRx KINOMEscan

[21] = biological target: T20, MKK7 (Homo sapiens, UniProt O14733); assay: KinomeScan; format: binding; settings: read-out: % control
T20 construct: purchased DiscoveRx KINOMEscan

[22] = biological target: T21, MLCK (Homo sapiens, UniProt Q32MK0); assay: KinomeScan; format: binding; settings: read-out: % control
T21 construct: purchased DiscoveRx KINOMEscan

[23] = biological target: T22, MRCKB (Homo sapiens, UniProt Q9Y5S2); assay: KinomeScan; format: binding; settings: read-out: % control
T22 construct: purchased DiscoveRx KINOMEscan

[24] = biological target: T23, MYLK2 (Homo sapiens, UniProt Q9H1R3); assay: KinomeScan; format: binding; settings: read-out: % control
T23 construct: purchased DiscoveRx KINOMEscan

[25] = biological target: T24, NEK7 (Homo sapiens, UniProt Q8TDX7); assay: KinomeScan; format: binding; settings: read-out: % control
T24 construct: purchased DiscoveRx KINOMEscan

[26] = biological target: T25, p38-beta (Homo sapiens, UniProt Q15759); assay: KinomeScan; format: binding; settings: read-out: % control
T25 construct: purchased DiscoveRx KINOMEscan

[27] = biological target: T26, PIK3C2G (Homo sapiens, UniProt O75747); assay: KinomeScan; format: binding; settings: read-out: % control
T26 construct: purchased DiscoveRx KINOMEscan

[28] = biological target: T27, QSK (Homo sapiens, UniProt Q9Y2K2); assay: KinomeScan; format: binding; settings: read-out: % control
T27 construct: purchased DiscoveRx KINOMEscan

[29] = biological target: T28, ROS1 (Homo sapiens, UniProt P08922); assay: KinomeScan; format: binding; settings: read-out: % control
T28 construct: purchased DiscoveRx KINOMEscan

[30] = biological target: RPS6KA4(Kin.Dom.2-C-terminal) (Homo sapiens, UniProt O75676); assay: KinomeScan; format: binding; settings: read-out: % control
[31] = biological target: T29, ZAP70 (Homo sapiens, UniProt P43403); assay: KinomeScan; format: binding; settings: read-out: % control
T29 construct: purchased DiscoveRx KINOMEscan

[32] = test system: BaF3-FL-EGFR-del19-T790M-C797S; assay: Anti-proliferation, BaF3 isogenic cell lines (CellTiter-Glo); format: cell-based; settings: Mus musculus, 72 hours, triplet testing
[33] = biological target: T30, BLK (Homo sapiens, UniProt P51451); assay: Invitrogen SelectScreen biochemical assay
T30 construct: purchased Invitrogen (SelectScreen service)
Text: (§1) In order to better understand CHMFL-EGFR-26's selectivity, we then tested it in DiscoveRx's KinomeScan™ assay. […] Given the fact that KinomeScan™ is a binding assay and sometimes cannot truly reflect the compound inhibitory activity, we then used Invitrogen SelectScreen® assay to test these potential off-targets (Supplementary Table 2). […] This was not surprising because EGFR, JAK3, HER2, HER4 and TEC family kinases (BTK, BLK and BMX) all share a similar cysteine residue at the identical position analogous to Cys 797 in EGFR in the hinge binding area.
(§2) www.impactjournals.com/oncotarget/ Oncotarget, Supplementary Materials 2017
(§3) KinomeScan Profiling by invitrogen SelectScreen® assay
(§4) (1 picture or pasted object on this page, not shown here)

[34] = biological target: T31, BMX (Homo sapiens, UniProt P51813); assay: Invitrogen SelectScreen biochemical assay
T31 construct: purchased Invitrogen (SelectScreen service)
Text: as §1, §2, §3, §4

[35] = biological target: T32, BTK (Homo sapiens, UniProt Q06187); assay: Invitrogen SelectScreen biochemical assay
T32 construct: purchased Invitrogen (SelectScreen service)
Text: as §1, §2, §3, §4

[36] = biological target: T33, HER2 (Homo sapiens, UniProt P04626); assay: Invitrogen SelectScreen biochemical assay
T33 construct: purchased Invitrogen (SelectScreen service)
Text: as §1, §2, §3, §4

[37] = biological target: T34, HER4 (Homo sapiens, UniProt Q15303); assay: Invitrogen SelectScreen biochemical assay
T34 construct: purchased Invitrogen (SelectScreen service)
Text: as §1, §2, §3, §4

[38] = biological target: T35, JAK3 (Homo sapiens, UniProt P52333); assay: Invitrogen SelectScreen biochemical assay
T35 construct: purchased Invitrogen (SelectScreen service)
Text: as §1, §2, §3, §4

[39] = biological target: T36, MEK1 (Homo sapiens, UniProt Q02750); assay: Invitrogen SelectScreen biochemical assay
T36 construct: purchased Invitrogen (SelectScreen service)
Text: as §1, §2, §3, §4

T20 sequence (O14733 whole entry): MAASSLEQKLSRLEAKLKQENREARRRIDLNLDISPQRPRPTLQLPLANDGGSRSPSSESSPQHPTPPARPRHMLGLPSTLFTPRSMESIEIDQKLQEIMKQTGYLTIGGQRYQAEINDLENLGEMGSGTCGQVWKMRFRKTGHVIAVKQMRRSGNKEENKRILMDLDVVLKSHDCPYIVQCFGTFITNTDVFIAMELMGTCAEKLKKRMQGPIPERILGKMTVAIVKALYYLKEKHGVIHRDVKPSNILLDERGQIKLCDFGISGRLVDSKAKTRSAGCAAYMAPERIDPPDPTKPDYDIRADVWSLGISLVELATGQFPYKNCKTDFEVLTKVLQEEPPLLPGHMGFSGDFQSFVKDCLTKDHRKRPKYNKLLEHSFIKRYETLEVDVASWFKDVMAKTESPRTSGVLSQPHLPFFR
T5 sequence (O95382 whole entry): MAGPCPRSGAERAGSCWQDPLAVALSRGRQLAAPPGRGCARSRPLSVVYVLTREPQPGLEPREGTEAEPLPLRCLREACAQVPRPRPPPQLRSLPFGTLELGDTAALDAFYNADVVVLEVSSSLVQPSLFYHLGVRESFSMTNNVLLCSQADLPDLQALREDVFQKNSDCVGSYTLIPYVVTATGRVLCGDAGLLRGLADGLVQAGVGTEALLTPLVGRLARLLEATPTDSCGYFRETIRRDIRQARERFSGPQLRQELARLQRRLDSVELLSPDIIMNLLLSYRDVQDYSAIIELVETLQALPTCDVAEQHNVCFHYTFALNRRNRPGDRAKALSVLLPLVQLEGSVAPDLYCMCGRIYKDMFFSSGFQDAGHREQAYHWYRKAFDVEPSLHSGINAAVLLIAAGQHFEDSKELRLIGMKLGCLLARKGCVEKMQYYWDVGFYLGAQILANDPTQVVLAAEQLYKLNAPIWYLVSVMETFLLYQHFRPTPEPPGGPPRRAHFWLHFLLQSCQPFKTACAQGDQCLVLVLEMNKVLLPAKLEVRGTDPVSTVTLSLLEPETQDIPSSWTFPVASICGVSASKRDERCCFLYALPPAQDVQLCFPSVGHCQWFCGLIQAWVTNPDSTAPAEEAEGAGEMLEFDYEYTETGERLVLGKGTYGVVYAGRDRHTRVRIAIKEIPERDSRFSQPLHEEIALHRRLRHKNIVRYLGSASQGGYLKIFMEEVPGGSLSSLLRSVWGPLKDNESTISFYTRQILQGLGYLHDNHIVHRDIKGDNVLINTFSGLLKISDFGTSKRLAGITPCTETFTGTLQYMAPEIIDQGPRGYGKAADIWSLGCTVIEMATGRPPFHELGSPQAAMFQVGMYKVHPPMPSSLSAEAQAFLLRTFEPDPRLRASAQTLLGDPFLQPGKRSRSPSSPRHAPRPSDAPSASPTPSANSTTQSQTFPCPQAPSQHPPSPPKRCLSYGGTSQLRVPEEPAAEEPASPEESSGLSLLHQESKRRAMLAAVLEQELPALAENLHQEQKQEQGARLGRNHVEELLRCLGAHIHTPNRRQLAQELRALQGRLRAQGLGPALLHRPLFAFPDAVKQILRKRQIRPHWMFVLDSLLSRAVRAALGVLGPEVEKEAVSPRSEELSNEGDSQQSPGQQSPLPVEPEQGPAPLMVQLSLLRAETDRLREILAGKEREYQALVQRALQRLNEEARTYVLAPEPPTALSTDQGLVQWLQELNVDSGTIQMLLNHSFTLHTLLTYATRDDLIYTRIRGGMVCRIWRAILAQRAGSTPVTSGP
T33 sequence (P04626 23-1255): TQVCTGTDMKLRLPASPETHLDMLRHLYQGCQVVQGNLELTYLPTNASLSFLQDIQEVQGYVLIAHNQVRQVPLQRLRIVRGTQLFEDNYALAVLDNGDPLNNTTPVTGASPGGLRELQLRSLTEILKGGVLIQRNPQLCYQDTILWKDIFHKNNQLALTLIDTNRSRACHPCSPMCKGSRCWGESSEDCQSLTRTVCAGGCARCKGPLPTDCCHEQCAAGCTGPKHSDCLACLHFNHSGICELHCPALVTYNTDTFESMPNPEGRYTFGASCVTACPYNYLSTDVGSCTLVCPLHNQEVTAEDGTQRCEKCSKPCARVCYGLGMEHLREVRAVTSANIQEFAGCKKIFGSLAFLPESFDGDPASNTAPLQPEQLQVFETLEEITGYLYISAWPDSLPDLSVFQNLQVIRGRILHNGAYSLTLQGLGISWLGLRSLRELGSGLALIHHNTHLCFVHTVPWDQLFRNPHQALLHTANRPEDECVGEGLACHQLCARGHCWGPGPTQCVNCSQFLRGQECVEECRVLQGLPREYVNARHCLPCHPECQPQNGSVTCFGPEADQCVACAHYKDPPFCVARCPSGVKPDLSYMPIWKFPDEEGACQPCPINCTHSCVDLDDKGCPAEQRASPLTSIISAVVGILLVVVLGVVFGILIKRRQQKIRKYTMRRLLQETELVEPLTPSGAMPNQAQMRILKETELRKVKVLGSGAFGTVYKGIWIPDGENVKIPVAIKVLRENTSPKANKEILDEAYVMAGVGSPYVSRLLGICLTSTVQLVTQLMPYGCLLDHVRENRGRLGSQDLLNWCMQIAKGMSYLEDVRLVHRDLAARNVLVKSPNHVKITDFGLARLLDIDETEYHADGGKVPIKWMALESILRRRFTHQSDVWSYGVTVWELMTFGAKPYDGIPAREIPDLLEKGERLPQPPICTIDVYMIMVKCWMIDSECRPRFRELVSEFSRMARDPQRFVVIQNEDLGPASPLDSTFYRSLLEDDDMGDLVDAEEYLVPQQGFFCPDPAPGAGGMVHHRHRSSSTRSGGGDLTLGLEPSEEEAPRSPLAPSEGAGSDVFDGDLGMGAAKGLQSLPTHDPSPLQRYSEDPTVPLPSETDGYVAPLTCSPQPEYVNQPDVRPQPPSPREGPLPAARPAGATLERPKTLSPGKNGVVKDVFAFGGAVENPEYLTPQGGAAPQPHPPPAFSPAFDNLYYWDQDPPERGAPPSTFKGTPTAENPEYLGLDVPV
T34 sequence (Q15303 26-1308): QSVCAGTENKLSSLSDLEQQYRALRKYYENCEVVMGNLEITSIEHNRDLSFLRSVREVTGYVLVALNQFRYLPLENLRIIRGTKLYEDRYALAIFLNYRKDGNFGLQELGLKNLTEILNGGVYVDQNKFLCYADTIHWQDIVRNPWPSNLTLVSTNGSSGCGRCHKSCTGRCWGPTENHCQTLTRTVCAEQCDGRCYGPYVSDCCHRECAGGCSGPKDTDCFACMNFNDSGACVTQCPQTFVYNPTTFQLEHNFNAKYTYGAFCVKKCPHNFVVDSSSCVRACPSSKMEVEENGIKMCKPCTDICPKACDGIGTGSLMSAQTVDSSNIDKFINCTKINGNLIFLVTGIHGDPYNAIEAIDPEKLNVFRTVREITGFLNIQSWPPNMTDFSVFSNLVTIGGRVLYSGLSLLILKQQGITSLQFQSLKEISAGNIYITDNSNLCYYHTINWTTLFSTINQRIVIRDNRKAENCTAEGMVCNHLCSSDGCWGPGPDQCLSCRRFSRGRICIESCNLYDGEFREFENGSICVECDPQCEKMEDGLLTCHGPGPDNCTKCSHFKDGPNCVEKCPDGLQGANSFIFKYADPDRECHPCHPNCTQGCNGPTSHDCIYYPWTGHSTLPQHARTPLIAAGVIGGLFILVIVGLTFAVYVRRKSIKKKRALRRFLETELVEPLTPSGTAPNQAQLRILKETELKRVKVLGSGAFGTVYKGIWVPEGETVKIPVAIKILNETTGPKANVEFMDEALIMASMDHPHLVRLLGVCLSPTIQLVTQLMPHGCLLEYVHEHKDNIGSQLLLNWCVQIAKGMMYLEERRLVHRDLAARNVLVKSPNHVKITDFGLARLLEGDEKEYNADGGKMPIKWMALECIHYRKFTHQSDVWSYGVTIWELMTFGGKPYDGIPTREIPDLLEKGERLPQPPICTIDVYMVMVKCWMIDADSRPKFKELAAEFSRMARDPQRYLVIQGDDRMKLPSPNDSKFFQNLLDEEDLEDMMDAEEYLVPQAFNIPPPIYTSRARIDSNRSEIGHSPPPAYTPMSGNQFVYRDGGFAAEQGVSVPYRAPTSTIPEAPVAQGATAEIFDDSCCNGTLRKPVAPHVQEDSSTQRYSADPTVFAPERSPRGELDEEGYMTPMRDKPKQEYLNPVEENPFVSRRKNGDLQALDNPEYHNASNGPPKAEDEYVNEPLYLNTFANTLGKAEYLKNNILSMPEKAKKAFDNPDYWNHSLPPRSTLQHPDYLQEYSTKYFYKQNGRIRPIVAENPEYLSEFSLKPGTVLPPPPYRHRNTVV
T9 sequence (Q15303 26-1308): as above
T23 sequence (Q9H1R3 whole entry): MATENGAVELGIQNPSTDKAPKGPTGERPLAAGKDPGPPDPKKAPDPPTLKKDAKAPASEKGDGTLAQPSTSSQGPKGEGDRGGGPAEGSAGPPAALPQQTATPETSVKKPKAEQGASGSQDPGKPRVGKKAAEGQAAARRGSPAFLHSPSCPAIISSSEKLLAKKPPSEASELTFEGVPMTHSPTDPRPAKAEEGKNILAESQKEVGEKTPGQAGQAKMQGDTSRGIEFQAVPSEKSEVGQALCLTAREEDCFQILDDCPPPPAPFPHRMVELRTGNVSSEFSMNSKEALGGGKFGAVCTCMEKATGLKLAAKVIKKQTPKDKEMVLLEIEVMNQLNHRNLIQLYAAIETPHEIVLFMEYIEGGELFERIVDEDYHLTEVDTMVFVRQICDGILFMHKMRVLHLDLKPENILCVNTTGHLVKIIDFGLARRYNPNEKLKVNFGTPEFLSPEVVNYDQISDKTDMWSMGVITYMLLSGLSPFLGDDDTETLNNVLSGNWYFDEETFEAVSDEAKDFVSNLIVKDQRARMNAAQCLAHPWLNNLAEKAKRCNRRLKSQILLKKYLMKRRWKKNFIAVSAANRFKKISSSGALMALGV

SMILES: C=CC(=O)N1CCC[C@@H](n2nc(-c3ccc(OCc4cccc(C)n4)c(Cl)c3)c3c(N)ncnc32)C1 [CHMFL-EGFR-26]
- remaining binding at 1 µM [1]: 100%
- remaining binding at 1 µM [2]: 100%
- remaining binding at 1 µM [3]: 99%
- remaining binding at 1 µM [4]: 100%
- remaining binding at 1 µM [5]: 68%
- remaining binding at 1 µM [6]: 83%
- remaining binding at 1 µM [7]: 76%
- remaining binding at 1 µM [8]: 97%
- remaining binding at 1 µM [9]: 0.45%
- remaining binding at 1 µM [10]: 100%
- % control [11]: 100%
- remaining binding at 1 µM [12]: 100%
- remaining binding at 1 µM [13]: 44%
- remaining binding at 1 µM [14]: 100%
- remaining binding at 1 µM [15]: 89%
- remaining binding at 1 µM [16]: 0.2%
- remaining binding at 1 µM [17]: 100%
- remaining binding at 1 µM [18]: 86%
- remaining binding at 1 µM [19]: 54%
- remaining binding at 1 µM [20]: 100%
- remaining binding at 1 µM [21]: 2.5%
- remaining binding at 1 µM [22]: 100%
- remaining binding at 1 µM [23]: 80%
- remaining binding at 1 µM [24]: 100%
- remaining binding at 1 µM [25]: 90%
- remaining binding at 1 µM [26]: 100%
- remaining binding at 1 µM [27]: 100%
- remaining binding at 1 µM [28]: 71%
- remaining binding at 1 µM [29]: 89%
- remaining binding at 1 µM [30]: 100%
- remaining binding at 1 µM [31]: 100%
- GI50 [32]: 2100 nM
- IC50 [33]: 3.9 nM
- IC50 [34]: 38.9 nM
- IC50 [35]: 16.3 nM
- IC50 [36]: 15.9 nM
- IC50 [37]: 5.39 nM
- IC50 [38]: 30.6 nM
- IC50 [39]: 131 nM
